Reference: the OligoGym collection
Oligonucleotides are written 5' to 3', each unit as a sugar letter and its base; * is a phosphorothioate linkage, no mark a phosphodiester; rarer units and linkages stand in square brackets, end groups in braces. Plain capitals give the bases only. d = 2'-deoxy (DNA); r = 2'-OH (RNA)

Target: UFC1
Experiment: reporter assay of Huesken 2005
Conditions: siRNA
Also: test concentration or dose not given here.

Substance	normalised inhibition (eCFP-eYFP dual reporter) [%]
sense rArArArUrCrCrCrUrGrArUrCrUrGrArUrUrCrAdTdT / antisense rUrGrArArUrCrArGrArUrCrArGrGrGrArUrUrUdCdC	81
sense rArArCrArArGrArArUrGrCrUrGrArCrArArCrGdTdT / antisense rCrGrUrUrGrUrCrArGrCrArUrUrCrUrUrGrUrUdGdT	43.3
sense rArArGrArCrArGrCrArArArGrArUrGrUrArCrAdTdT / antisense rUrGrUrArCrArUrCrUrUrUrGrCrUrGrUrCrUrUdTdC	113
sense rArArGrArUrGrUrArCrArGrGrGrGrUrGrGrCrAdTdT / antisense rUrGrCrCrArCrCrCrCrUrGrUrArCrArUrCrUrUdTdG	62.3
sense rArArGrGrArArCrUrCrGrGrUrGrGrUrUrUrGrGdTdT / antisense rCrCrArArArCrCrArCrCrGrArGrUrUrCrCrUrUdCdC	32.2
sense rArCrArArCrArArGrArArUrGrCrUrGrArCrArAdTdT / antisense rUrUrGrUrCrArGrCrArUrUrCrUrUrGrUrUrGrUdTdC	86.4
sense rArCrCrUrCrCrUrGrArArArUrArUrGrArGrUrUdTdT / antisense rArArCrUrCrArUrArUrUrUrCrArGrGrArGrGrUdCdA	43.5
sense rArCrCrUrUrUrGrUrGrGrGrCrCrArGrGrArArUdTdT / antisense rArUrUrCrCrUrGrGrCrCrCrArCrArArArGrGrUdTdT	56.9
sense rArCrGrGrArUrCrArUrUrUrCrArArArCrCrUrUdTdT / antisense rArArGrGrUrUrUrGrArArArUrGrArUrCrCrGrUdCdA	106
sense rArCrUrArGrCrUrCrArUrCrUrCrArUrGrGrCrUdTdT / antisense rArGrCrCrArUrGrArGrArUrGrArGrCrUrArGrUdCdC	53.8
sense rArCrUrGrArArGrGrArGrGrArArUrArUrCrArGdTdT / antisense rCrUrGrArUrArUrUrCrCrUrCrCrUrUrCrArGrUdCdG	75.2
sense rArGrCrGrArCrUrGrArArGrGrArGrGrArArUrAdTdT / antisense rUrArUrUrCrCrUrCrCrUrUrCrArGrUrCrGrCrUdGdC	93.1
sense rArGrGrArArGrGrArArCrUrCrGrGrUrGrGrUrUdTdT / antisense rArArCrCrArCrCrGrArGrUrUrCrCrUrUrCrCrUdTdG	61.8
sense rArGrGrGrCrGrUrCrArUrCrCrArArCrArCrArAdTdT / antisense rUrUrGrUrGrUrUrGrGrArUrGrArCrGrCrCrCrUdTdC	107
sense rArGrUrCrCrArArCrArArGrGrArArGrGrArArCdTdT / antisense rGrUrUrCrCrUrUrCrCrUrUrGrUrUrGrGrArCrUdCdC	83.5
sense rArGrUrCrCrCrUrUrArUrCrCrGrGrUrArUrGrUdTdT / antisense rArCrArUrArCrCrGrGrArUrArArGrGrGrArCrUdGdA	74.6

Substance	normalised inhibition (eCFP-eYFP dual reporter) [%]
sense rArGrUrUrGrUrGrGrGrUrGrCrArGrCrGrArCrUdTdT / antisense rArGrUrCrGrCrUrGrCrArCrCrCrArCrArArCrUdCdA	80.4
sense rArGrUrUrUrGrArCrArUrCrGrArGrUrUrUrGrAdTdT / antisense rUrCrArArArCrUrCrGrArUrGrUrCrArArArCrUdCdA	122
sense rArUrArUrCrCrUrArCrUrArCrUrGrCrCrCrCrAdTdT / antisense rUrGrGrGrGrCrArGrUrArGrUrArGrGrArUrArUdGdT	78.2
sense rArUrCrArCrArUrArUrCrCrUrArCrUrArCrUrGdTdT / antisense rCrArGrUrArGrUrArGrGrArUrArUrGrUrGrArUdAdG	69.2
sense rArUrCrArGrUrCrCrCrUrUrArUrCrCrGrGrUrAdTdT / antisense rUrArCrCrGrGrArUrArArGrGrGrArCrUrGrArUdAdT	99.1
sense rArUrCrCrArArCrArCrArArArGrArGrArArArUdTdT / antisense rArUrUrUrCrUrCrUrUrUrGrUrGrUrUrGrGrArUdGdA	69.1
sense rArUrCrUrCrArUrGrGrCrUrCrUrGrGrGrGrCrUdTdT / antisense rArGrCrCrCrCrArGrArGrCrCrArUrGrArGrArUdGdA	53.8
sense rArUrGrGrArArArGrArCrArGrCrArArArGrArUdTdT / antisense rArUrCrUrUrUrGrCrUrGrUrCrUrUrUrCrCrArUdCdC	69.9
sense rArUrUrGrCrArGrUrUrCrCrUrGrArGrCrUrGrGdTdT / antisense rCrCrArGrCrUrCrArGrGrArArCrUrGrCrArArUdTdT	61.6
sense rCrArGrCrGrArCrUrGrArArGrGrArGrGrArArUdTdT / antisense rArUrUrCrCrUrCrCrUrUrCrArGrUrCrGrCrUrGdCdA	100
sense rCrArGrUrCrCrCrUrUrArUrCrCrGrGrUrArUrGdTdT / antisense rCrArUrArCrCrGrGrArUrArArGrGrGrArCrUrGdAdT	78.8
sense rCrCrGrGrArCrCrCrCrGrArGrArUrCrGrUrGrAdTdT / antisense rUrCrArCrGrArUrCrUrCrGrGrGrGrUrCrCrGrGdCdG	56.6
sense rCrCrGrGrUrArUrGrUrGrGrArGrArArCrArArCdTdT / antisense rGrUrUrGrUrUrCrUrCrCrArCrArUrArCrCrGrGdAdT	72.3
sense rCrCrUrGrArGrCrUrGrGrArUrGrGrArArArGrAdTdT / antisense rUrCrUrUrUrCrCrArUrCrCrArGrCrUrCrArGrGdAdA	120
sense rCrGrArGrUrUrUrGrArCrArUrUrCrCrUrArUrCdTdT / antisense rGrArUrArGrGrArArUrGrUrCrArArArCrUrCrGdAdT	95.7
sense rCrGrUrCrArUrCrCrArArCrArCrArArArGrArGdTdT / antisense rCrUrCrUrUrUrGrUrGrUrUrGrGrArUrGrArCrGdCdC	86.3

Target: NOG
Experiment: reporter assay of Huesken 2005
Conditions: siRNA

Substance	normalised inhibition (eCFP-eYFP dual reporter) [%]
sense rGrCrUrUrCrArGrUrArArGrCrGrCrUrCrGrUrGdTdT / antisense rCrArCrGrArGrCrGrCrUrUrArCrUrGrArArGrCdAdG	84.7
sense rGrGrArArCrGrArCrCrUrGrGrGrCrArGrCrCrGdTdT / antisense rCrGrGrCrUrGrCrCrCrArGrGrUrCrGrUrUrCrCdAdC	51.5
sense rGrGrCrArArGrArArGrCrArGrCrGrCrCrUrArAdTdT / antisense rUrUrArGrGrCrGrCrUrGrCrUrUrCrUrUrGrCrCdCdT	91.3
sense rGrGrCrArUrGrGrUrGrUrGrCrArArGrCrCrGrUdTdT / antisense rArCrGrGrCrUrUrGrCrArCrArCrCrArUrGrCrCdCdT	79.1
sense rGrGrCrGrGrCrCrArGrCrArCrUrArUrCrUrCrCdTdT / antisense rGrGrArGrArUrArGrUrGrCrUrGrGrCrCrGrCrCdGdG	87.4
sense rGrGrCrUrUrCrArUrGrGrCrCrArCrCrUrCrGrCdTdT / antisense rGrCrGrArGrGrUrGrGrCrCrArUrGrArArGrCrCdTdG	64.6
sense rGrGrGrCrArArGrArArGrCrArGrCrGrCrCrUrAdTdT / antisense rUrArGrGrCrGrCrUrGrCrUrUrCrUrUrGrCrCrCdTdG	93.3
sense rGrUrCrCrArArGrUrCrCrGrUrGrCrArCrCrUrCdTdT / antisense rGrArGrGrUrGrCrArCrGrGrArCrUrUrGrGrArCdGdG	55.7
sense rGrUrGrCrArArGrCrCrGrUrCrCrArArGrUrCrCdTdT / antisense rGrGrArCrUrUrGrGrArCrGrGrCrUrUrGrCrArCdAdC	75.4
sense rGrUrGrGrCrUrGrUrGrGrUrCrGrCrArGrArCrAdTdT / antisense rUrGrUrCrUrGrCrGrArCrCrArCrArGrCrCrArCdAdT	83.3
sense rUrArCrGrCrGrUrGrGrArArCrGrArCrCrUrGrGdTdT / antisense rCrCrArGrGrUrCrGrUrUrCrCrArCrGrCrGrUrAdCdA	51.8
sense rUrCrArUrCrGrArArCrArCrCrCrArGrArCrCrCdTdT / antisense rGrGrGrUrCrUrGrGrGrUrGrUrUrCrGrArUrGrAdGdG	67.8
sense rUrCrCrGrCrCrCrGrGrCrArCrCrCrArGrCrGrAdTdT / antisense rUrCrGrCrUrGrGrGrUrGrCrCrGrGrGrCrGrGrAdTdG	72
sense rUrCrGrCrArGrArCrArUrUrCrUrGrCrCrCrCrGdTdT / antisense rCrGrGrGrGrCrArGrArArUrGrUrCrUrGrCrGrAdCdC	47.6
sense rUrCrUrGrCrCrCrCrGrUrGrCrUrGrUrArCrGrCdTdT / antisense rGrCrGrUrArCrArGrCrArCrGrGrGrGrCrArGrAdAdT	61
sense rUrGrCrUrGrUrArCrGrCrGrUrGrGrArArCrGrAdTdT / antisense rUrCrGrUrUrCrCrArCrGrCrGrUrArCrArGrCrAdCdG	85.2
sense rUrGrGrUrCrGrCrArGrArCrArUrUrCrUrGrCrCdTdT / antisense rGrGrCrArGrArArUrGrUrCrUrGrCrGrArCrCrAdCdA	40.5
sense rUrGrGrUrGrGrArCrCrUrCrArUrCrGrArArCrAdTdT / antisense rUrGrUrUrCrGrArUrGrArGrGrUrCrCrArCrCrAdGdG	96.4
sense rUrGrUrGrGrUrCrGrCrArGrArCrArUrUrCrUrGdTdT / antisense rCrArGrArArUrGrUrCrUrGrCrGrArCrCrArCrAdGdC	57.5
sense rUrUrGrGrCrCrCrArGrGrGrCrArArGrArArGrCdTdT / antisense rGrCrUrUrCrUrUrGrCrCrCrUrGrGrGrCrCrArAdGdC	41.1
